Data: patent publication US9340543B2, “Helquat derivatives, preparation thereof, and use thereof as medicaments” (USTAV ORGANICKE CHEMIE A BIOCHEMIE AKADEMIE VED CR, V.V.I., priority 2013, dated 2016)

Tests used:
HUVEC = assay: CellTiter-Glo luminescent cell viability assay (ATP quantification), HUVEC normal cells; assay type: cell-based, human; conditions: 72 h treatment
Method: (§1) Influence of the test compounds on viability (proliferation) of cell lines used was investigated in concentration range 0-100 μmol·l^−1.
Normal human endothelial cells from umbilical vein are adherent cells cultivated in plastic Petri dishes coated with collagen I. Into the cultivation medium (E-STIM™; BD Biosciences, cat. co. 355054) already containing 2% FBS (fetal bovine serum), hydrocortisone and heparin the following two further ingredients were added: epidermal growth factor (EGF, 5 μg) and mixture of factors facilitating growth of endothelial cells (ECGS, 100 mg). […] The cells were passaged after reaching 90% confluency by dissociation using 0.25% solution of trypsin/EDTA (1 ml; 3 min; 37° C.). After that 5 ml of complete cultivation medium E-STIM™ was added and the cells were centrifuged (180×g, 7 min), the pellet was resuspended, and transferred in the amount needed into a new Petri dish with fresh medium. The cells were used in experiments between the 3rd and the 8th passage after defreezing. Population doubling time of HUVEC cell line was 38 h under the cultivation conditions used.
(§2) In order to test the sensitivity of the cell lines towards the studied helquats, cytotoxity test for cell viability assessment based on ATP quantification in cell lysates was used (CellTiter-Glo® Luminescent Cell Viability Assay, Promega, cat. no. G7571). In this test, ATP in cell lysates is detected using luciferase reaction. Luminescence intensity correlates with the ATP level and thus with quantity of metabolically active (viable) cells. IC50 value serves as the output, that is the concentration of the test compound which leads to 50% reduction in number of viable cells as compared to control, untreated population. To this end, IC50 value reflects efficiency of the test compound with regard to the given cell line.
(§3) Cells in the exponential growth phase were seeded into a 96-well microtiter plate were plated at 3000 cells per well. Each well contained 90 μl of cell suspension. The next day, 10 μl of 10× concentrated test compound solutions were added. The effect of helquats was investigated in concentration range 1 to 100 μmol·l^−1 (e.g. 1; 2.5; 5; 7.5; 10; 15; 25; 50 and 100 μmol·l^−1). Apart from the section containing the concentration series of the test compound, each well contained 2 control columns, the first with pure medium (so called blank) and the second with cells in medium without the test compounds (control). Into wells containing controls and blanks, volume of solvent (water) equal to the volume of added compound solutions was added. After 72 h of incubation with the test compounds viability was determined according to the manufacturer's instructions. In short: microtiter well plate was left 30 min to reach the room temperature after it has been removed from the incubator. Then, into each well, 100 μl of the prepared detection agent was added. Next, the well plate was shaken for 2 min to complete the full lysis. Next, after the well had been left in the dark for 15 min, the luminescence was measured in each well using luminometer (Tecan Genios, Austria).
(§4) IC50 value represents concentration of the test compound, which leads to 50% reduction of viable cells (inhibition of cell growth) after 72 h of the treatment. Each helquat concentration was tested in triplicates in a IC50 quantification and at least 3 independent IC50 quantification experiments were performed. IC50 values over 100 μmol·l^−1 were obtained by extrapolation of data measured in concentration range 0-100 μmol·l^−1 for the given helquat.

CCRF-CEM = assay: CellTiter-Glo luminescent cell viability assay (ATP quantification), CCRF-CEM; assay type: cell-based; conditions: acute lymphoblastic leukemia cells, 72 h treatment, viable cells by ATP luminescence
Method: as §1
Suspension cell line CCRF-CEM is a permanent in vitro culture of acute lymphoblastic leukemia. CCRF-CEM cell line was cultivated in RPMI 1640 medium (Sigma-Aldrich, cat. no. R8758) with addition of 2 mmol·l^−1 glutamine (Invitrogen, cat. no. 35050-038), 10% fetal bovine serum (FBS, Sigma-Aldrich, cat. no. F9665), 100 IU/ml peniciline, 100 μg/ml streptomycine (Sigma-Aldrich, cat. no. P0781). Passaging was performed 2-3× a week. Population doubling time of CCRF-CEM cell line was 20 h under the cultivation conditions used.
as §2, §3, §4

NHDF-Ad = assay: CellTiter-Glo luminescent cell viability assay (ATP quantification), NHDF-Ad normal cells; assay type: cell-based; conditions: normal human dermal fibroblasts, 72 h treatment
From the text: as §1
Normal human dermal fibroblasts were cultivated without antibiotics in basal medium for fibroblasts (ATCC/LGC Standards, cat. no. PCS-201-030) with added “Fibroblast Growth Kit-Low serum” (ATCC/LGC Standards, cat. no. PCS-201-041) containing 2% FBS, L-glutamine, hydrocortisone, ascorbic acid, rh FGF beta, rh insulin. When 90% confluency was reached the fibroblasts were washed with sterile PBS (5 ml) and dissociated by addition of 0.25% solution of trypsin/EDTA (2 ml; 2 min; 37° C.). After that 5 ml of cultivation medium for fibroblasts was added and the cells were centrifuged (180×g, 7 min), the cell pellet was resuspended, and transferred in the amount needed into a new cultivation bottle with fresh medium. The same cell release procedure was applied when the cells were to be used in experiments. The cells were used in experiments between the 3rd and the 15th passage after defreeezing. Population doubling time of NHDF-Ad cell line was 33 h under the cultivation conditions used.
as §2, §3, §4

MOLT-4 = assay: CellTiter-Glo luminescent cell viability assay (ATP quantification), MOLT-4; assay type: cell-based; conditions: acute lymfoblastic leukemia cells, 72 h treatment, viable cells by ATP luminescence
Method: as §1
(§5) Suspension cell line MOLT-4 is a permanent in vitro culture of acute lymfoblastic leukemia. Linie MOLT-4 cell line was cultivated in RPMI 1640 medium (Sigma-Aldrich, see above) with addition of 2 mmol glutamine (Invitrogen, see above), 10% fetal bovine serum (FBS, Sigma-Aldrich, see above), 100 IU/ml peniciline, 100 μg/ml streptomycine (Sigma-Aldrich, see above). Passaging was performed 2-3× a week. Population doubling time of MOLT-4 cell line was 25 h under the cultivation conditions used.
as §2, §3, §4

HeLa = assay: CellTiter-Glo luminescent cell viability assay (ATP quantification), HeLa; assay type: cell-based; conditions: cervical cancer cells, 72 h treatment, viable cells by ATP luminescence
Method: as §1
Adherent cell line HeLa is a permanent in vitro culture derived from cervical cancer. HeLa cell line was cultivated in RPMI 1640 medium (Dutch modification) (Sigma-Aldrich, cat. no. R7638) with addition of 2 mmol·l^−1 glutamine (Invitrogen, see above), 10% fetal bovine serum (FBS, Sigma-Aldrich, see above), 100 IU/ml peniciline, 100 μg/ml streptomycine (Sigma-Aldrich, see above). Passaging was performed twice a week. After washing of cells with sterile PBS the cells were released by 0.25% trypsin/EDTA (Sigma-Aldrich, cat. no. T4049) at 37° C. for 2 minutes. The trypsin was inactivated by addition of 2 volumes of complete medium, cells were then centrifuged (250×g, 5 min), the cell pellet was resuspended, and transferred in the amount needed into a new cultivation bottle with fresh medium. Population doubling time of […] cell line was 25 h under the cultivation conditions used.
as §2, §3, §4

HL-60 = assay: CellTiter-Glo luminescent cell viability assay (ATP quantification), HL-60; assay type: cell-based; conditions: Homo sapiens, HL-60; acute promyelocytic leukemia cells, 72 h treatment, viable cells by ATP luminescence
Method: as §1
as §5, with “HL-60” for “MOLT-4”, “promyelocytic” for “lymfoblastic”, “HL-60” for “Linie MOLT-4”, “mmol·l^−1” for “mmol”, “23” for “25”
as §2, §3, §4

LoVo = assay: CellTiter-Glo luminescent cell viability assay (ATP quantification), LoVo; assay type: cell-based; conditions: Homo sapiens, LoVo, colorectal carcinoma cells, 72 h treatment
Method: as §1
Adherent cell line LoVo is a permanent in vitro culture derived from tissue of a patient with colorectal carcinoma. LoVo cell line was cultivated in DMEM medium (Sigma-Aldrich, cat. no. D8437) with addition of 2 mmol·l^−1 glutamine (Invitrogen, see above), 10% fetal bovine serum (FBS, Sigma-Aldrich, see above), 100 IU/ml peniciline, 100 μg/ml streptomycine (Sigma-Aldrich, see above). Passaging was performed twice a week. After washing of cells with sterile PBS, the cells were released by 0.25% trypsin/EDTA (Sigma-Aldrich, see above) at 37° C. for 2 minutes. The trypsin was inactivated by addition of 2 volumes of complete medium, cells were then centrifuged (250×g, 5 min), resuspended, and transferred in the amount needed into a new cultivation bottle with fresh medium. Population doubling time of LoVo cell line was 39 h under the cultivation conditions used.
as §2, §3, §4

[1] = HUVEC, normal human endothelial cells, numeric bound, values over 100 obtained by extrapolation of data measured at 0-100 μmol·l−1
[2] = Fibroblast, viable cells by ATP luminescence, class symbols
[3] = Fibroblast, numeric bound, values over 100 obtained by extrapolation of data measured at 0-100 μmol·l−1
[4] = HUVEC, normal human endothelial cells from umbilical vein, viable cells by ATP luminescence, class symbols
[5] = viable cells by ATP luminescence, class symbols
[6] = numeric bound, values over 100 obtained by extrapolation of data measured at 0-100 μmol·l−1

Compound | IC50 (HUVEC; [1]) [µM] | IC50 (CCRF-CEM; Homo sapiens, CCRF-CEM) [µM] | IC50 (NHDF-Ad; [2]) [µM] | IC50 (MOLT-4; Homo sapiens, MOLT-4) [µM] | IC50 (HeLa; Homo sapiens, HeLa) [µM] | IC50 (NHDF-Ad; [3]) [µM] | IC50 (HL-60) [µM] | IC50 (HUVEC; [4]) [µM] | IC50 (LoVo; [5]) [µM] | IC50 (LoVo; [6]) [µM] | IC50 (HUVEC; normal human endothelial cells, numeric bound, values over 100 obtained by extrapolation of data measured at 0-100 μmol·l−1) [µM] | IC50 (CCRF-CEM) [µM] | IC50 (NHDF-Ad; [5]) [µM] | IC50 (MOLT-4) [µM] | IC50 (HeLa) [µM]
Cc1c(C)c2c(c3c1CC[n+]1ccc(/C=C/c4ccc(N(C)C)cc4)cc1-3)-c1c3ccccc3cc[n+]1CC2 (racemic) [(rac)-1, (rac)-(E)-13-(4-(dimethylamino)styryl)-6,7-dimethyl-4,5,8,9-tetrahydroiso-quinolino[1,2-a]pyrido[1,2-k][2,9]phenanthroline-3,10-diium trifluoromethanesulfonate] | > 150 | 11 to 50 | 51 to 150 | 11 to 50 | 11 to 50 | – | – | – | – | – | – | – | – | – | –
COc1ccc2cc(/C=C/c3cc[n+]4c(c3)-c3c(c(C)c(C)c5c3-c3c6ccccc6cc[n+]3CC5)CC4)ccc2c1 (racemic) [(rac)-7, (rac)-(E)-13-(2-(6-methoxynaphthalene-2-yl)vinyl)-6,7-dimethyl-4,5,8,9-tetrahydroisoquinolino[1,2-a]pyrido[1,2-k][2,9]phenanthroline-3,10-diium trifluoromethanesulfonate] | > 150 | < 10 | – | 11 to 50 | 11 to 50 | > 150 | 11 to 50 | – | – | – | – | – | – | – | –
C(=C\c1cc[n+]2c(c1)-c1c(ccc3c1-c1c4ccccc4cc[n+]1CC3)CC2)/c1cc2c3c(c1)CCCN3CCC2 (racemic) [(rac)-20, (rac)-(E)-13-(2-(1,2,3,5,6,7-hexahydropyrido[3,2,1-ij]quinolin-9-yl)vinyl)-4,5,8,9-tetrahydroisoquinolino[2,1-k]pyrido[2,1-a][2,9]phenanthroline-3,10-diium trifluoromethanesulfonate] | – | 11 to 50 | 51 to 150 | 11 to 50 | 11 to 50 | – | – | 51 to 150 | 51 to 150 | – | – | – | – | – | –
CN(C)c1ccc(/C=C/c2cc[n+]3c(c2)-c2c(ccc4c2-c2cccc[n+]2CCC4)CCC3)cc1 (racemic) [(rac)-35, (rac)-(E)-2-(4-(dimethylamino)styryl)-6,7,8,11,12,13-hexahydrodipyrido[1,2-a:1′,2′-a′]benzo[2,1-c:3,4-c′]bisazepinediium trifluoromethanesulfonate] | > 150 | 51 to 150 | – | 51 to 150 | 51 to 150 | > 150 | – | – | – | > 150 | – | – | – | – | –
CN(C)c1ccc(/C=C/c2cccc3[n+]2CCCc2ccc4c(c2-3)-c2cccc(/C=C/c3ccc(N(C)C)cc3)[n+]2CCC4)cc1 (racemic) [(rac)-41, (rac)-4,15-bis((E)-4-(dimethylamino)styryl)-6,7,8,11,12,13-hexahydro-dipyrido[1,2-a:1′,2′-a′]benzo[2,1-c:3,4-c′]bisazepinediium trifluoromethanesulfonate] | – | 11 to 50 | 51 to 150 | 11 to 50 | 11 to 50 | – | – | 51 to 150 | 11 to 50 | – | – | – | – | – | –
Cc1c(C)c2c(c3c1CC[n+]1ccc(/C=C/c4ccc(N(C)C)cc4)cc1-3)-c1c3ccccc3cc[n+]1CC2 [(P)-1, (P)-(E)-13-(4-(dimethylamino)styryl)-6,7-dimethyl-4,5,8,9-tetrahydroiso-quinolino[1,2-a]pyrido[1,2-k][2,9]phenanthroline-3,10-diium trifluoromethanesulfonate] | – | – | – | – | – | – | – | – | – | – | > 150 | 11 to 50 | 51 to 150 | 11 to 50 | 11 to 50
CN(C)c1ccc(/C=C/C=C/c2cc[n+]3c(c2)-c2c(ccc4c2-c2cccc[n+]2CC4)CC3)cc1 [compound 30, 2-((1E,3E)-4-(4-(dimethylamino)phenyl)buta-1,3-dien-1-yl)-6,7,10,11-tetrahydrodipyrido[2,1-a:1′,2′-k][2,9]phenanthroline-5,12-diium trifluoromethanesulfonate] | > 150 | 51 to 150 | – | 51 to 150 | 51 to 150 | > 150 | – | – | – | > 150 | – | – | – | – | –
